Assay results: PubChem BioAssay AID248 (DTP/NCI, 2004)
Where “and” joins values, the source holds several entries; their conditions need not be identical. Equal values may be shown once. Inconclusive results and toxic doses are left out. Rule as the data show it: active = T/C of 150% or more; inactive = T/C below 125%.

Test system: L1210 leukemia ip in BDF1 mice, survival T/C
Experiment: NCI In Vivo Anticancer Drug Screen. Data for tumor model L1210 Leukemia (intraperitoneal) in B6D2F1 (BDF1) mice
Conditions: endpoint: mean survival time, higher = longer survival
Procedure, shortened: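 Tumor cells were implanted, animals were treated, and survival was followed. The result divides the treated measurement by the vehicle-control measurement.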

[1] = dose: 50.0 mg/kg/injection, schedule: Q01DX009 (ip), vehicle: saline with Tween-80
[2] = dose: 100.0 mg/kg/injection, schedule: Q04DX003 (ip), vehicle: saline with Tween-80
[3] = dose: 200.0 mg/kg/injection, schedule: Q04DX003 (ip), vehicle: saline with Tween-80
[4] = dose: 400.0 mg/kg/injection, schedule: Q04DX003 (ip), vehicle: saline with Tween-80
[5] = dose: 50.0 mg/kg/injection, schedule: Q01DX009 (ip), vehicle: saline
[6] = dose: 100.0 mg/kg/injection, schedule: Q01DX009 (ip), vehicle: saline
[7] = dose: 100.0 mg/kg/injection, schedule: Q01DX001 (ip), vehicle: saline with Tween-80
[8] = dose: 100.0 mg/kg/injection, schedule: Q01DX009 (ip), vehicle: saline with Tween-80
[9] = dose: 100.0 mg/kg/injection, schedule: Q04DX002 (ip), vehicle: saline with Tween-80
[10] = dose: 200.0 mg/kg/injection, schedule: Q01DX001 (ip), vehicle: saline with Tween-80
[11] = dose: 200.0 mg/kg/injection, schedule: Q01DX009 (ip), vehicle: saline with Tween-80
[12] = dose: 200.0 mg/kg/injection, schedule: Q04DX002 (ip), vehicle: saline with Tween-80
[13] = dose: 400.0 mg/kg/injection, schedule: Q01DX001 (ip), vehicle: saline with Tween-80
[14] = dose: 400.0 mg/kg/injection, schedule: Q04DX002 (ip), vehicle: saline with Tween-80
[15] = dose: 50.0 mg/kg/injection, schedule: Q01DX001 (ip), vehicle: saline
[16] = dose: 100.0 mg/kg/injection, schedule: Q01DX001 (ip), vehicle: saline
[17] = dose: 200.0 mg/kg/injection, schedule: Q01DX001 (ip), vehicle: saline
[18] = dose: 400.0 mg/kg/injection, schedule: Q01DX001 (ip), vehicle: saline

Measured: T/C

O=C(O)c1ccc(N=Nc2ncc[nH]2)cc1
inactive: dose: 6.25 mg/kg/injection, schedule: Q01DX009 (ip), vehicle: saline with Tween-80 92 % of control | dose: 12.5 mg/kg/injection, schedule: Q01DX009 (ip), vehicle: saline with Tween-80 96 % of control | dose: 25.0 mg/kg/injection, schedule: Q01DX009 (ip), vehicle: saline with Tween-80 96 % of control | [1] 87 % of control

CCCCCCNC(=O)Oc1cccc(NC(=O)CC)c1
inactive: [2] 104 % of control | [3] 88 % of control | [4] 102 % of control

Cc1cc(=O)c2cc(Cc3ccc4[nH]c(C)cc(=O)c4c3)ccc2[nH]1
inactive: [5] 91 % of control | [6] 88 % of control | dose: 100.0 mg/kg/injection, schedule: Q04DX003 (ip), vehicle: saline 94 % of control | dose: 200.0 mg/kg/injection, schedule: Q04DX003 (ip), vehicle: saline 94 % of control | dose: 400.0 mg/kg/injection, schedule: Q04DX003 (ip), vehicle: saline 93 % of control

O=C(CCN1CC1)OC1CCCCCC1
inactive: dose: 6.25 mg/kg/injection, schedule: Q01DX009 (ip), vehicle: Klucel (hydroxypropylcellulose) (HPC) 100 % of control | dose: 12.5 mg/kg/injection, schedule: Q01DX009 (ip), vehicle: Klucel (hydroxypropylcellulose) (HPC) 100 % of control | dose: 25.0 mg/kg/injection, schedule: Q01DX009 (ip), vehicle: Klucel (hydroxypropylcellulose) (HPC) 95 % of control | dose: 100.0 mg/kg/injection, schedule: Q04DX003 (ip), vehicle: Klucel (hydroxypropylcellulose) (HPC) 104 % of control | dose: 200.0 mg/kg/injection, schedule: Q04DX003 (ip), vehicle: Klucel (hydroxypropylcellulose) (HPC) 101 % of control

C/C(=N\N=C(/C)c1c(C)c([N+](=O)[O-])c(C(C)(C)C)c([N+](=O)[O-])c1C)c1c(C)c([N+](=O)[O-])c(C(C)(C)C)c([N+](=O)[O-])c1C
inactive: dose: 100.0 mg/kg/injection, schedule: Q04DX002 (ip), vehicle: Klucel (hydroxypropylcellulose) (HPC) 97 % of control | dose: 200.0 mg/kg/injection, schedule: Q04DX002 (ip), vehicle: Klucel (hydroxypropylcellulose) (HPC) 94 % of control | dose: 400.0 mg/kg/injection, schedule: Q04DX002 (ip), vehicle: Klucel (hydroxypropylcellulose) (HPC) 97 % of control

OCCC1CC1=C1CC1 (stereo unspecified)
inactive: dose: 50.0 mg/kg/injection, schedule: Q01DX009 (ip), vehicle: Klucel (hydroxypropylcellulose) (HPC) 101 % of control | dose: 100.0 mg/kg/injection, schedule: Q01DX009 (ip), vehicle: Klucel (hydroxypropylcellulose) (HPC) 98 % of control

O=C(NN1C(=O)CSC1=S)c1ccc([N+](=O)[O-])s1
inactive: dose: 50.0 mg/kg/injection, schedule: Q01DX005 (ip), vehicle: saline 96 % of control | dose: 100.0 mg/kg/injection, schedule: Q01DX005 (ip), vehicle: saline 102 % of control

O=C(c1ccccc1)c1cc(Cl)ccc1NC(=O)C(Cl)(Cl)Cl
inactive: dose: 50.0 mg/kg/injection, schedule: Q01DX001 (ip), vehicle: saline with Tween-80 97 % of control | [7] 102 % of control | [8] 95 % of control and 89 % of control | [9] 96 % of control and 104 % of control | [10] 92 % of control | [11] 95 % of control and 89 % of control | [12] 93 % of control and 96 % of control | [13] 91 % of control | dose: 400.0 mg/kg/injection, schedule: Q01DX009 (ip), vehicle: saline with Tween-80 89 % of control and 91 % of control | [14] 101 % of control and 89 % of control

CCOC(=O)C(NC(C)=O)(C(=O)OCC)C(=O)c1ccc(Cl)cc1
inactive: dose: 100.0 mg/kg/injection, schedule: Q01DX001 (ip), vehicle: carboxymethylcellulose (CMC) 89 % of control | dose: 200.0 mg/kg/injection, schedule: Q01DX001 (ip), vehicle: carboxymethylcellulose (CMC) 94 % of control

CCc1ccc(N2C(N)=NC(N)=NC2(C)C)cc1
inactive: dose: 25.0 mg/kg/injection, schedule: Q01DX001 (ip), vehicle: saline 104 % of control | [15] 100 % of control | [16] 105 % of control and 110 % of control

CC[N+](CC)(CC)CCCCCCCCCC[N+](CC)(CC)CC
inactive: dose: 0.19 mg/kg/injection, schedule: Q01DX009 (ip), vehicle: water 100 % of control | dose: 0.39 mg/kg/injection, schedule: Q01DX009 (ip), vehicle: water 95 % of control | dose: 0.78 mg/kg/injection, schedule: Q01DX009 (ip), vehicle: water 90 % of control | dose: 0.78 mg/kg/injection, schedule: Q04DX003 (ip), vehicle: saline 103 % of control

O=C(Nc1ccc([N+](=O)[O-])cc1)N1CCCCC1
inactive: [16] 95 % of control | [17] 95 % of control | [18] 97 % of control

O=S1(=O)CCCO1
inactive: dose: 100.0 mg/kg/injection, schedule: Q01DX009 (ip), vehicle: other 103 % of control | dose: 200.0 mg/kg/injection, schedule: Q01DX009 (ip), vehicle: other 109 % of control

O=C(c1ccc(Cl)cc1)C(NCCO)c1ccc(Cl)cc1 (stereo unspecified)
inactive: [15] 97 % of control | [16] 101 % of control | [17] 95 % of control | [18] 95 % of control

CC(Oc1ccccc1)C(=O)NC(=S)Nc1cccc2ccccc12 (stereo unspecified)
inactive: [1] 90 % of control and 91 % of control | [7] 108 % of control | [8] 100 % of control and 86 % of control | [9] 108 % of control and 114 % of control | [2] 108 % of control | [10] 95 % of control | [12] 93 % of control and 105 % of control | [3] 92 % of control | [13] 93 % of control | [14] 93 % of control and 88 % of control | [4] 92 % of control

COc1ccc(Cl)cc1NC(=O)Oc1ccccc1C(N)=O
inactive: dose: 25.0 mg/kg/injection, schedule: Q01DX009 (ip), vehicle: saline 106 % of control and 113 % of control | dose: 25.0 mg/kg/injection, schedule: Q04DX002 (ip), vehicle: saline with Tween-80 104 % of control and 112 % of control | [5] 102 % of control | dose: 50.0 mg/kg/injection, schedule: Q04DX002 (ip), vehicle: saline with Tween-80 102 % of control and 91 % of control | [7] 107 % of control | [8] 86 % of control | [6] 98 % of control | [2] 104 % of control | [10] 108 % of control | [12] 110 % of control

O=c1[nH]nc(-c2ccccn2)o1
inactive: [1] 97 % of control | [8] 90 % of control | [11] 97 % of control

C(/C=C/c1ccccc1)=C\c1ccccc1
inactive: [15] 104 % of control | [16] 104 % of control | [17] 104 % of control | [18] 104 % of control

CCN(C(=O)c1cccc(C(=O)N(CC)c2ccccc2C)c1)c1ccccc1C
inactive: [1] 97 % of control | [8] 90 % of control | [2] 99 % of control | [11] 89 % of control | [3] 90 % of control

CC1=CN(C)C(=O)CC1
inactive: dose: 100.0 mg/kg/injection, schedule: Q01DX001 (ip), vehicle: acetone 96 % of control | dose: 200.0 mg/kg/injection, schedule: Q01DX001 (ip), vehicle: acetone 96 % of control | dose: 400.0 mg/kg/injection, schedule: Q01DX001 (ip), vehicle: acetone 104 % of control

COc1cc([N+](=O)[O-])cc2c1OC1(C=C2)N(C)c2ccccc2C1(C)C (stereo unspecified)
inactive: dose: 25.0 mg/kg/injection, schedule: Q04DX002 (ip), vehicle: gum acacia 111 % of control | dose: 50.0 mg/kg/injection, schedule: Q04DX002 (ip), vehicle: gum acacia 97 % of control and 100 % of control | dose: 100.0 mg/kg/injection, schedule: Q04DX002 (ip), vehicle: gum acacia 100 % of control | dose: 200.0 mg/kg/injection, schedule: Q04DX002 (ip), vehicle: gum acacia 108 % of control

C=CC[N+](CC=C)(CC=C)C/C=C/C[N+](CC=C)(CC=C)CC=C
inactive: dose: 6.25 mg/kg/injection, schedule: Q01DX009 (ip), vehicle: water 95 % of control | dose: 12.5 mg/kg/injection, schedule: Q01DX009 (ip), vehicle: water 94 % of control and 91 % of control | dose: 25.0 mg/kg/injection, schedule: Q01DX009 (ip), vehicle: water 93 % of control and 101 % of control | dose: 50.0 mg/kg/injection, schedule: Q01DX009 (ip), vehicle: water 104 % of control
